Earlier results, collected in patent publication US20220395496A1 (Hoffmann-La Roche Inc., priority 2019, published 2022).

What was measured:
HEK/hTLR9 = molecular target: T1, HEK/hTLR9 (Homo sapiens, UniProt Q9NR96); details: data disclosed in WO2015057655; cited from earlier work
T1 construct: host or cells: HEK cells
T1 sequence (Q9NR96 26-1032): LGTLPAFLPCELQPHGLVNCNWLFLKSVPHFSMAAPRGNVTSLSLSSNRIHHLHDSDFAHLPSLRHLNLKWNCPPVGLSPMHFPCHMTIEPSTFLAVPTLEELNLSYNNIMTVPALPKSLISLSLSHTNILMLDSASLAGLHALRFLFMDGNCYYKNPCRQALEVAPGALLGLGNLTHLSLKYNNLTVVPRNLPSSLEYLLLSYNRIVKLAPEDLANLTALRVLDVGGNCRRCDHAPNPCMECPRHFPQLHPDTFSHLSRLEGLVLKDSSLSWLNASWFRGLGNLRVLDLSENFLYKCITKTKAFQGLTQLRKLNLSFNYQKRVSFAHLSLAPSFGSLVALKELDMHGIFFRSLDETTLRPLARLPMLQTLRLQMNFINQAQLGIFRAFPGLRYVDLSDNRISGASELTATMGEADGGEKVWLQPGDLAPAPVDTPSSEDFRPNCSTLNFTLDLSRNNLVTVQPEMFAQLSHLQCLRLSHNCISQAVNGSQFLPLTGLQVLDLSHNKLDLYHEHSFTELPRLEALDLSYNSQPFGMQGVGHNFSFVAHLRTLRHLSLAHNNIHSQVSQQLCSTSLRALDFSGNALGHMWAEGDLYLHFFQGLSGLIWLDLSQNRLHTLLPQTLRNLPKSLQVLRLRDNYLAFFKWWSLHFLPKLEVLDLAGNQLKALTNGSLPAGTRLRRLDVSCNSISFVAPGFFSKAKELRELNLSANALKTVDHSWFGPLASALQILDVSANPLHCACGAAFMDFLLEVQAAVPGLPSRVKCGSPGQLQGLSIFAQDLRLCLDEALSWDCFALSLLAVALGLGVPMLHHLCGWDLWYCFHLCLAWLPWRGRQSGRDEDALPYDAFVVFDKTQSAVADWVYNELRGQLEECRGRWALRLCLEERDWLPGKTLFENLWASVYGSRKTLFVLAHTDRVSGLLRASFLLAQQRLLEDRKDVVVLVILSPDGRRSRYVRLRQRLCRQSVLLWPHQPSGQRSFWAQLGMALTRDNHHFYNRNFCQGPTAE

HEK/hTLR7 = molecular target: T2, HEK/hTLR7 (Homo sapiens, UniProt Q9NYK1); details: data disclosed in WO2015057655; cited from earlier work
T2 construct: host or cells: HEK cells
T2 sequence (Q9NYK1 27-1049): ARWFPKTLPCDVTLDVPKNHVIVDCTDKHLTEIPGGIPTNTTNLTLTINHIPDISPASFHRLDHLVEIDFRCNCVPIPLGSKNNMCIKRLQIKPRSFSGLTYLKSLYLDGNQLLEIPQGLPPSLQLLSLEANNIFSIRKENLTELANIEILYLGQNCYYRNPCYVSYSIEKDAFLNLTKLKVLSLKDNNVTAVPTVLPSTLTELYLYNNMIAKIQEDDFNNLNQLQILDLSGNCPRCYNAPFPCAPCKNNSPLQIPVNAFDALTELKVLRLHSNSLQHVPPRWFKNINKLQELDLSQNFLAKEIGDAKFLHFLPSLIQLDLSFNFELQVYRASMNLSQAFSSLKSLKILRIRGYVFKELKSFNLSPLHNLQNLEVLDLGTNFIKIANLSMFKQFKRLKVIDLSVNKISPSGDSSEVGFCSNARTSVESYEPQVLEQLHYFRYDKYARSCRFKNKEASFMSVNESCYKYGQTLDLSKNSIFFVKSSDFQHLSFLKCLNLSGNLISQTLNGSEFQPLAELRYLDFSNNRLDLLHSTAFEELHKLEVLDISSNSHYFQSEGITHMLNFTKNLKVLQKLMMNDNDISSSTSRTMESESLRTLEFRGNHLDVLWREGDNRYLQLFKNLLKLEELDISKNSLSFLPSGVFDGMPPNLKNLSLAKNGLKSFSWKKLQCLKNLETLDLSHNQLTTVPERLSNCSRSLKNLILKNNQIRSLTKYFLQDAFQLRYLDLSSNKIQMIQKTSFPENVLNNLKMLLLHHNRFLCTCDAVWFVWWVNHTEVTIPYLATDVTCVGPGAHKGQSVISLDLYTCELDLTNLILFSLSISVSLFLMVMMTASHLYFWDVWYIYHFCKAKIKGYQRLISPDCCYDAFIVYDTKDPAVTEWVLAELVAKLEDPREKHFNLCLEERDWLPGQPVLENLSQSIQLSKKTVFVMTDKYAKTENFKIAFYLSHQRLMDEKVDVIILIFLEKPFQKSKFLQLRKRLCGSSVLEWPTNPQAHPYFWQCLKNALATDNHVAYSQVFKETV

C[C@H]1C[C@@H](NCc2ncco2)CN(c2ccc(C#N)c3ncccc23)C1 [ER-899551]
IC50 (HEK/hTLR9): > 10000 nM
IC50 (HEK/hTLR7): 43 nM

C[C@H]1C[C@@H](NCc2ccc(C(F)(F)F)cn2)CN(c2ccc(C#N)c3ncccc23)C1 [ER-899543]
IC50 (HEK/hTLR9): > 10000 nM
IC50 (HEK/hTLR7): 48 nM

CC(N[C@@H]1C[C@H](C)CN(c2ccc(C#N)c3ncccc23)C1)c1ccccn1 (some centres unmarked) [ER-899607]
IC50 (HEK/hTLR9): > 10000 nM
IC50 (HEK/hTLR7): 149 nM

C[C@H]1C[C@@H](NCc2cn(C)cn2)CN(c2ccc(C#N)c3ncccc23)C1 [ER-899552]
IC50 (HEK/hTLR9): 1970 nM
IC50 (HEK/hTLR7): 207 nM
